Laboratory results taken from the supplement of paper PMC10307832.

Key:
Test in all cases: relative viability (nuclei count vs DMSO), 5 days (fraction); higher = more cells survive
TGX 221 + Lapatinib = compound: CC1=CN2C(=O)C=C(N=C2C(=C1)C(C)NC3=CC=CC=C3)N4CCOCC4 [TGX 221] + CS(=O)(=O)CCNCc1ccc(-c2ccc3ncnc(Nc4ccc(OCc5cccc(F)c5)c(Cl)c4)c3c2)o1 [Lapatinib] (partner 2 µM)
Summary of the method: (§1)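 Lung cancer cell lines in 1536-well plates were dosed by pin tool the day after seeding, either with one drug alone or with a fixed anchor-drug dose plus five library-drug doses (not always all listed) in √10 steps. After 5 days, cells were fixed and their nuclei stained in one step (final 0.05% Triton X-100, 1% formaldehyde, 1 ug/ml Hoechst), then counted on 4× images. Relative viability is the nuclei count in treated wells divided by that in vehicle wells. Values are medians of duplicate plates.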

TGX 221 + Trametinib = compound: CC1=CN2C(=O)C=C(N=C2C(=C1)C(C)NC3=CC=CC=C3)N4CCOCC4 [TGX 221] + CC(=O)Nc1cccc(-n2c(=O)n(C3CC3)c(=O)c3c(Nc4ccc(I)cc4F)n(C)c(=O)c(C)c32)c1 [Trametinib] (partner 0.02 µM)
Summary of the method: as §1

[1] = compound: C1=CC=C(C(=C1)C2=CC=C(C=C2)C3=CSC4=C3C(=C(C(=O)N4)C#N)O)O + Cc1nc(NC(=O)N2CCC[C@H]2C(N)=O)sc1-c1ccnc(C(C)(C)C(F)(F)F)c1 [Alpelisib] (partner 2 µM)
Summary of the method: as §1

[2] = compound: C1=CC=C(C(=C1)C2=CC=C(C=C2)C3=CSC4=C3C(=C(C(=O)N4)C#N)O)O + O=C(c1cc(Cc2n[nH]c(=O)c3ccccc23)ccc1F)N1CCN(C(=O)C2CC2)CC1 [Olaparib] (partner 8 µM)
Summary of the method: as §1

Cell Line	relative viability (TGX 221 + Lapatinib; first compound 0.08 µM)	relative viability (TGX 221 + Lapatinib; first compound 0.253 µM)	relative viability (TGX 221 + Lapatinib; first compound 0.8 µM)	relative viability (TGX 221 + Lapatinib; first compound 2.53 µM)	relative viability (TGX 221 + Lapatinib; first compound 8 µM)	relative viability (TGX 221 + Trametinib; first compound 0.08 µM)	relative viability (TGX 221 + Trametinib; first compound 0.253 µM)	relative viability (TGX 221 + Trametinib; first compound 0.8 µM)	relative viability (TGX 221 + Trametinib; first compound 2.53 µM)	relative viability (TGX 221 + Trametinib; first compound 8 µM)	relative viability ([1]; first compound 0.08 µM)	relative viability ([1]; first compound 0.253 µM)	relative viability ([1]; first compound 0.8 µM)	relative viability ([1]; first compound 2.53 µM)	relative viability ([1]; first compound 8 µM)	relative viability ([2]; first compound 0.08 µM)	relative viability ([2]; first compound 0.253 µM)	relative viability ([2]; first compound 0.8 µM)	relative viability ([2]; first compound 2.53 µM)	relative viability ([2]; first compound 8 µM)
NCI-H1734	0.907	1.05	1.1	1.06	0.927	0.678	0.602	0.71	0.66	0.688	0.658	0.675	0.697	0.724	0.542	0.601	0.687	0.678	0.601	0.529
NCI-H1975	0.92	0.855	0.861	0.796	0.791	0.313	0.414	0.356	0.289	0.272	0.508	0.694	0.542	0.721	0.485	0.692	0.901	0.796	0.893	0.535
NCI-H1793	0.633	0.624	0.721	0.58	0.456	0.462	0.374	0.398	0.357	0.306	0.699	0.624	0.598	0.581	0.45	0.929	0.937	0.867	0.882	0.78
NCI-H1651	0.777	0.644	0.758	0.804	0.599	0.809	0.84	0.756	0.764	0.73	0.65	1.06	1.08	1.05	0.854	0.185	0.182	0.197	0.186	0.16
NCI-H1437	0.904	0.722	0.773	0.72	0.711	0.462	0.448	0.437	0.38	0.415	0.713	1.16	0.994	1.09	0.883	0.616	0.74	0.668	0.641	0.606
SK-MES-1	0.487	0.414	0.422	0.39	0.381	0.526	0.572	0.449	0.379	0.339	0.863	0.985	0.96	0.782	0.675	0.863	0.816	0.858	0.651	0.611
NCI-H647	0.95	0.869	0.955	0.746	0.61	0.436	0.375	0.355	0.247	0.297	0.559	1	1.11	1.19	1.34	–	0.648	0.677	0.776	0.421
LK-2	0.853	0.891	0.887	0.915	1.01	0.725	0.716	0.847	0.823	0.749	–	–	0.906	1	1.06	0.568	0.899	0.883	0.822	0.753
LU99A	0.957	0.865	0.939	1.01	0.913	0.507	0.479	0.557	0.505	0.493	0.613	0.5	0.538	0.507	0.527	0.255	0.225	0.248	0.262	0.266
NCI-H661	0.486	0.376	0.439	0.382	0.394	0.584	0.544	0.569	0.591	0.495	0.59	0.583	0.538	0.554	0.549	0.64	0.799	0.724	0.843	0.708
NCI-H520	0.724	0.562	0.824	0.671	0.516	0.521	0.591	0.744	0.597	0.505	0.602	0.767	1.03	0.87	0.861	0.283	0.318	0.363	0.365	0.347
HCC-78	0.702	0.699	–	0.277	0.794	0.735	0.586	0.757	0.551	0.469	0.286	0.485	0.296	0.29	0.349	0.815	1.4	0.91	0.787	0.711
NCI-H1666	0.648	0.654	0.695	0.618	0.683	0.726	0.797	0.852	0.884	0.742	0.792	1.18	0.861	1.14	0.987	0.731	0.715	0.767	0.737	0.747
EKVX	0.231	0.194	0.213	0.182	0.19	0.3	0.322	0.291	0.273	0.304	0.786	0.995	0.838	0.953	0.851	0.98	0.929	0.778	0.856	0.716
HARA	0.788	0.722	0.707	0.662	0.766	0.722	0.655	0.715	0.614	0.429	–	0.84	0.796	0.932	0.655	0.687	1.55	0.727	1.1	0.762
A-427	0.998	0.992	1.01	0.991	1.05	0.686	0.747	0.771	0.627	0.7	1.08	1.13	1.13	1.11	1.12	0.781	0.71	0.849	0.712	0.793

Cell Line	relative viability (TGX 221 + Lapatinib; first compound 0.08 µM)	relative viability (TGX 221 + Lapatinib; first compound 0.253 µM)	relative viability (TGX 221 + Lapatinib; first compound 0.8 µM)	relative viability (TGX 221 + Lapatinib; first compound 2.53 µM)	relative viability (TGX 221 + Lapatinib; first compound 8 µM)	relative viability (TGX 221 + Trametinib; first compound 0.08 µM)	relative viability (TGX 221 + Trametinib; first compound 0.253 µM)	relative viability (TGX 221 + Trametinib; first compound 0.8 µM)	relative viability (TGX 221 + Trametinib; first compound 2.53 µM)	relative viability (TGX 221 + Trametinib; first compound 8 µM)	relative viability ([1]; first compound 0.08 µM)	relative viability ([1]; first compound 0.253 µM)	relative viability ([1]; first compound 0.8 µM)	relative viability ([1]; first compound 2.53 µM)	relative viability ([1]; first compound 8 µM)	relative viability ([2]; first compound 0.08 µM)	relative viability ([2]; first compound 0.253 µM)	relative viability ([2]; first compound 0.8 µM)	relative viability ([2]; first compound 2.53 µM)	relative viability ([2]; first compound 8 µM)
NCI-H2087	1.09	0.912	1.13	0.985	1.11	0.168	0.155	0.211	0.207	0.217	1.07	1.27	1.16	1.11	1.13	0.513	0.587	0.667	0.811	0.496
NCI-H460	0.709	0.795	0.983	0.969	0.966	0.104	0.121	0.202	0.171	0.0976	–	0.67	0.596	0.588	0.387	0.341	0.406	0.331	0.452	0.434
PC-14	0.334	0.269	0.289	0.28	0.26	0.666	0.701	0.701	0.717	0.515	0.761	1.17	0.853	0.981	0.71	0.352	0.261	0.252	0.255	0.28
NCI-H2009	0.961	0.927	0.894	0.882	0.772	0.25	0.196	0.204	0.152	0.173	1.11	1.09	1.14	1.11	1.09	0.649	0.668	0.924	0.591	0.714
COR-L 105	0.409	0.333	0.394	0.394	0.325	0.501	0.431	0.482	0.43	0.419	0.859	1.04	0.93	0.802	0.953	0.695	0.793	1.03	0.688	0.859
NCI-H1993	0.786	0.697	0.766	0.689	0.915	0.797	0.508	0.526	0.507	0.529	0.684	0.624	0.69	0.594	0.655	0.988	1.67	0.894	1.01	0.882
NCI-H1395	0.926	0.862	0.751	0.804	0.714	0.93	0.935	0.831	0.767	0.761	–	1.17	1.16	1.09	0.967	–	0.469	0.479	0.458	0.446
SW 1573	1.01	1.01	1.1	0.852	1.12	0.518	0.429	0.567	0.382	0.442	0.726	0.974	0.758	0.624	0.583	0.51	0.464	0.502	0.439	0.384
BEN	0.721	0.719	0.506	0.68	0.605	1.03	0.969	0.93	0.998	0.891	0.828	1.11	0.918	1.27	0.756	0.987	1.38	1.03	1.19	0.971
RERF-LC-KJ	0.837	0.824	0.749	0.829	0.84	0.686	0.756	0.83	0.775	0.753	0.769	0.935	0.961	0.782	0.69	0.956	1.03	0.963	1.02	0.8
UMC-11	0.879	0.854	0.901	0.909	1.18	0.671	0.648	0.822	0.777	0.823	0.668	0.73	1.01	1.2	0.793	–	0.396	0.435	0.425	0.417
HOP-62	1.15	0.987	1.09	1.02	0.912	0.386	0.351	0.338	0.252	0.298	0.905	0.774	0.709	1.05	0.573	0.592	0.471	0.515	0.844	0.233
NCI-H2023	0.79	0.718	0.73	0.689	0.769	0.55	0.397	0.603	0.469	0.35	0.517	0.591	0.644	0.607	0.585	0.467	0.49	0.495	0.487	0.607
NCI-H596	1.13	1.09	1.03	0.993	0.958	0.654	0.807	0.82	0.908	0.774	0.397	0.541	0.489	0.497	0.447	0.594	0.683	0.695	0.539	0.658
LOU-NH91	0.71	0.814	0.751	0.728	0.739	0.818	0.741	0.756	0.774	0.709	0.678	0.789	0.721	0.663	0.67	0.877	1.01	0.872	0.959	0.877
COR-L23	0.886	0.923	1.02	1.11	0.938	0.507	0.592	0.573	0.577	0.523	0.832	0.998	0.702	0.92	0.63	0.318	0.343	0.32	0.365	0.322
